Laboratory results from US6365634B1, “Naturally occurring compounds and their derivatives as cyclooxygenase 2 and/or 5-lipoxygenase inhibitors” (C-P Technology Limited Partnership, priority 1997, dated 2002).

System: human keratinocyte LTB4 production
Assay: Cell-based 5-LO assay: LTB4 production by cultured human keratinocytes (enzyme immunoassay)
Conditions: 5, 1.0, 0.2 and 0.04 uM, 24 hours, high calcium medium
From the text: In addition to assessing the effect of dehydroabietic acid methyl ester on the production of PGE2 by human keratinocytes, the human keratinocyte culture system was also used to assess for the inhibition of LTB4 production. Keratinocytes have not been used as extensively as other cell types for 5-LO studies, however, human keratinocytes produce appreciable amounts of LTB4 and production of this eicosanoid by cultured keratinocytes is inhibited by known inhibitors of 5-LO (see FIG. 11). To assess for inhibition of LTB4 production, human keratinocytes were cultured as described above. Following introduction of the high calcium media, the identical dilution series of dehydroabietic acid methyl ester as described above in the PGE2 study was added to duplicate wells of keratinocytes. Twenty-four hours later culture media samples were removed from each well and the amount of LTB4 in each sample determined using an enzyme immunoassay specific for LTB4 (Cayman Chemical). As was done with the PGE2 assay described above, the percent inhibition was calculated based on a comparison between vehicle treated control cultures and cultures treated with dehydroabietic acid methyl ester or Rev 5901 (a specific 5-LO inhibitor; Cayman Chemical).

SMILES: COC(=O)[C@]1(C)CCC[C@]2(C)c3ccc(C(C)C)cc3CC[C@@H]12 [Dehydroabietic acid methyl ester, dehydroabietic acid methyl ester]
- inhibition of LTB4 production by cultured human keratinocytes: inhibited the production of LTB4 by cultured human keratinocytes in a dose-dependent manner
